Values quoted from earlier work in patent publication US8177778B2, “System and method for stabilizing corneal tissue after treatment” (Avedro, Inc., priority 2009, dated 2012).

Test system: corneal wound healing
Conditions: rabbits after excimer laser PRK ablation, M6P drop vs control drop

Structure (SMILES): O=C[C@@H](O)[C@@H](O)[C@H](O)[C@H](O)COP(=O)(O)O [M6P, Mannose 6-phosphate]
- subepithelial collagen: less subepithelial collagen
- corneal haze (at 4 weeks): significant reduction in corneal haze
